{"source": "patent US6544727B1", "about": "“Methods and devices for the removal of psoralens from blood products” (Cerus Corporation, priority 1995, dated 2003)", "key": {"platelets": {"tested_on": "platelets", "assay": "Partitioning of S-59 in platelet concentrate before and after UVA illumination", "format": "in vitro ADME", "details": "% of the original S-59, after UVA", "excerpt": "During the UVA illumination process, S-59 undergoes a photochemical reaction to form several low molecular weight photoproducts in addition to associating with macromolecules in both the platelet and the plasma fractions. […] This fraction of low molecular weight photoproducts is removed during the scrub process, and their removal can be monitored both by HPLC and by radioactivity measurement using ^3H-labeled S-59.\nThe S-59 which is not amenable to removal by the scrub/capture process can also be monitored using ^3H-labeled S-59."}, "[1]": {"assay": "Residual S-59 and photoproducts D and E in fresh frozen plasma after batch RD (Tables R, T)", "format": "physicochemical, human", "procedure": "Samples taken from each bag after a 1-hour incubation were analyzed for S-59 and photoproduct removal. The results (n=7) for residual S-59 and photoproducts D and E (two of primary photoproducts formed during illumination, as described above) are presented in Table R (ND=not detectable; 1 hour incubation).\nThe experiments were performed in the manner described above."}, "R17 bacteriophage": {"tested_on": "R17 bacteriophage", "assay": "R17 bacteriophage inactivation at constant concentration, varying doses of UV light", "format": "cell-based", "details": "1.0-3.0 J/cm^2, FIGS. 11-17", "procedure": "Compounds of the present invention were also tested at a constant concentration for varying doses of UV light. Three sets of 1.5 mL tubes were prepared containing 0.6mL aliquots of R17 in DMEM (prepared as described above). The compound tested was added at the desired concentration and the samples were vortexed. The samples were then irradiated at intervals of 1.0 J/cm^2, until 3.0 J/cm^2 was reached. Between each 1.0 J/cm^2 interval, 100 μL was removed from each sample and placed in the first corresponding dilution tube, then five sequential dilutions were performed for each compound tested, at all 3 irradiation doses, as described above in this example.\nThen 50 μL of Hfr 3000 bacteria was added to each tube, 3 mL of top agar was added and the tube contents were vortexed The contents of each tube was poured into its own LB plate and the plates were incubated overnight at 37° C. Plaques were counted by visual inspection the following morning."}, "[2]": {"tested_on": "Salmonella tester strain TA102", "assay": "Ames test, strain TA102", "procedure": "In this example the compounds of the present invention are tested for their dark mutagenicity using an Ames assay. The procedures used for the Salmonella mutagenicity test as described in detail by Maron and Ames were followed exactly. Maron, D. M. and B. N. Ames, Mutation Research 113: 173 ( 1983). A brief description for each procedure is given here. The tester strains TA97a, TA98, TA100, TA102, TA1537 and TA1538 were obtained from Dr. Ames. TA97a, TA98, TA1537 and TA1538 are frameshift tester strains. TA100 and TA102 are base-substitution tester strains. Upon receipt each strain was cultured under a variety of conditions to confirm the genotypes specific to the strains.\nThe first tests done with the strains were to determine the range of spontaneous reversion for each of the strains. With each mutagenicity experiment the spontaneous reversion of the tester strains to histidine independence was measured and expressed as the number of spontaneous revertants per plate. This served as the background controls.\nFor all experiments, the pre-incubation procedure was used. In this procedure one vial of each tester strain was thawed and 20 μL of this culture was added to 6 mL of Oxoid Nutrient Broth #2. This solution was allowed to shake for 10 hours at 37° C. In the pre-incubation procedure, 0.1 mL of this overnight culture was added to each of the required number of sterile test tubes. To half of the tubes 0.5 mL of a 10% S-9 solution containing Aroclor 1254 induced rat liver extract (Molecular Toxicology Inc., Annapolis, Md.), and MgCl2, KCl, glucose-6-phosphate, NADP, and sodium phosphate buffer (Sigma, St. Louis, Mo.) were added. To the other half of the tubes 0.5 mL of 0.2M sodium phospate buffer, pH 7.4, was used in place of the S-9 mixture (the—S9samples). Finally 0.1 mL of the test solution containing either 0, 0.1, 0.5, 1, 5, 10, 50, 100, 250, or 500 μg/mL of the test compound was added. The 0.7 mL mixture was vortexed and then pre-incubated while shaking for 20 minutes at 37° C. After shaking, 2 mL of molten top agar supplemented with histidine and biotin were added to the 0.7 mL mixture and immediately poured onto a minimal glucose agar plate (volume of base agar was 20 mL). The top agar was allowed 30 minutes to solidify and then the plates were inverted and incubated for 44 hours at 37° C. After incubation the number of revertant colonies on each plate were counted. […] (“n” represents the number of replicates performed for each data point.)"}, "DNA": {"tested_on": "DNA", "details": "Isaacs et al., NCI Monograph 66:21 (1984); cited from earlier work"}}, "data": [{"smiles": "Cc1oc2c(C)c3oc(=O)cc(C)c3cc2c1COCCN", "note": "[Compound 2, 4′-(4-amino-2-oxa)butyl-4,5′,8-trimethylpsoralen]", "values": [{"measurement": "photo-reaction products of S-59", "setting": "platelets", "result": "40-50%"}, {"measurement": "residual S-59 in fresh frozen plasma", "setting": "[1]; RD with […] g Dowex XUS 43493, approximately one hour incubation", "result": "≤ 0.75", "unit": "µM"}, {"measurement": "Concentration in plasma, Pre-Removal", "setting": "[1]; Table R, 150 μM S-59 in plasma after 3 J/cm^2 UVA, before RD", "result": 83.30, "unit": "µM"}, {"measurement": "Concentration in plasma, Pre-removal (±SD)", "setting": "[1]; Table T, 150 μM S-59 in plasma after 3 J/cm^2 UVA, before RD", "result": "88.7 ± 4.1", "unit": "µM"}]}, {"smiles": "Cc1oc2c(C)c3oc(=O)cc(C)c3cc2c1CNCCCCN", "note": "[Compound 6, 4′-(6-amino-2-aza)hexyl-4,5′,8-trimethylpsoralen]", "values": [{"measurement": "R17 inactivation efficiency compared with AMT (in words)", "setting": "R17 bacteriophage", "result": "more efficient at inactivating R17 than was AMT"}]}, {"smiles": "Cc1oc2c(C)c3oc(=O)cc(C)c3cc2c1CN", "note": "[AMT, 4′-Aminomethyl-4,5′,8-trimethylpsoralen, reference compound]", "values": [{"measurement": "revertant colonies per plate", "setting": "[2]; TA102 + S9, 0.1 μg/plate", "result": "−20"}, {"measurement": "revertant colonies per plate", "setting": "[2]; TA102 + S9, 0.5 μg/plate", "result": 5}, {"measurement": "revertant colonies per plate", "setting": "[2]; TA102 + S9, 1 μg/plate", "result": "−17"}, {"measurement": "revertant colonies per plate", "setting": "[2]; TA102 + S9, 5 μg/plate", "result": 51}, {"measurement": "revertant colonies per plate", "setting": "[2]; TA102 − S9, 0.1 μg/plate", "result": 27}, {"measurement": "revertant colonies per plate", "setting": "[2]; TA102 − S9, 0.5 μg/plate", "result": 47}, {"measurement": "revertant colonies per plate", "setting": "[2]; TA102 − S9, 1 μg/plate", "result": 88}, {"measurement": "revertant colonies per plate", "setting": "[2]; TA102 − S9, 5 μg/plate", "result": 266}, {"measurement": "DNA base pairs per AMT adduct (up to 1 adduct per)", "setting": "DNA", "result": 3.5, "unit": "DNA base pairs"}]}]}
